This note sets out measurements from patent publication US9730914B2, “3,5-diaminopyrazole kinase inhibitors” (Axikin Pharmaceuticals, Inc., priority 2014, dated 2017).

The target of one assay is T1, JAK3 (Homo sapiens, UniProt P52333).
T1 construct: made in house; host or cells: E. coli BL21-derived host (T7 phage) or HEK-293
The assay is described as follows: Kinase competition binding assay (Kd, qPCR readout), JAK3. Particulars: for Kd: Kd class, JAK3, read-out: JAK3 Activity Level; for RCK:JAK3 selectivity ratio: ratio Kd (JAK3): Kd (RCK). The method in brief:
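Kd values were derived from 11-point, 3-fold compound series at 1% DMSO, usually topping at 30,000 nM, with retesting from a lower top when under 0.5 nM. It competed with bead-immobilized ligand for 1 h at room temperature, and the captured kinase was measured by qPCR after elution.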
(In general: In qPCR the cycle at which signal appears reflects the starting amount.)

The target of assay [1] is T2, kinase domain protein of RC kinase (RCK) (Homo sapiens, UniProt Q56UN5).
T2 construct: made in house; host or cells: E. coli BL21-derived host (T7 phage) or HEK-293
T2 sequence (Q56UN5 1061-1324 limits assumed): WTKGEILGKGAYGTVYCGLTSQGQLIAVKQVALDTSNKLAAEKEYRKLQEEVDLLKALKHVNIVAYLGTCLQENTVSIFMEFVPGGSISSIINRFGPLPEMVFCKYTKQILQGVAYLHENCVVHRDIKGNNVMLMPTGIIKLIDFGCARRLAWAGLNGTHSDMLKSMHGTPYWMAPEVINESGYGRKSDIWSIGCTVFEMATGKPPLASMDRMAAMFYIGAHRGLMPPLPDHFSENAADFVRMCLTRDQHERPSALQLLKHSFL
The assay is described as follows: Kinase competition binding assay (Kd, qPCR readout), RC kinase. Particulars: Kd class, read-out: RCK Activity Level. In short, it runs like this:
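Competition binding: DNA-tagged kinase (T7 phage or HEK-293-expressed) plus immobilized biotinylated ligand beads and compound, 1 h at room temperature, 1% DMSO. Bead-bound kinase eluted and quantified by qPCR. Kd from 11-point 3-fold dilution, top 30,000 nM, retested lower if below 0.5 nM.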

The next assay deals with T3, JAK2 (Homo sapiens, UniProt O60674).
T3 construct: made in house; host or cells: E. coli BL21-derived host (T7 phage) or HEK-293
The assay is described as follows: Kinase competition binding assay (Kd, qPCR readout), JAK2. As to conditions: for Kd: Kd class, JAK2, read-out: JAK2 Activity Level; for RCK:JAK2 selectivity ratio: ratio Kd (JAK2): Kd(RCK). The method in brief:
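Competition binding: DNA-tagged kinase (T7 phage or HEK-293-expressed), immobilized biotinylated ligand beads and compound in SeaBlock/PBS/Tween/DTT buffer, 1 hour at room temperature; bound kinase eluted and quantified by qPCR. Kd from 11-point 3-fold dilution, top 30,000 nM typically, final DMSO 1%.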

SMILES strings stand for the structures.

T3 sequence (O60674 840-1132 limits assumed): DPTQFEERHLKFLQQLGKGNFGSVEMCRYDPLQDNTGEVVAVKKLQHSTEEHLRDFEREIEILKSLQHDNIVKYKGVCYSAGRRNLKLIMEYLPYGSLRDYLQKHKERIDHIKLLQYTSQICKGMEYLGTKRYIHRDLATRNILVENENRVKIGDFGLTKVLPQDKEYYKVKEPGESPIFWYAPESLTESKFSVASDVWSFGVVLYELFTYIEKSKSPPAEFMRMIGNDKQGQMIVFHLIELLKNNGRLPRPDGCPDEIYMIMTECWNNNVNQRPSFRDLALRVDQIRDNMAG
T1 sequence (P52333 811-1124 limits assumed): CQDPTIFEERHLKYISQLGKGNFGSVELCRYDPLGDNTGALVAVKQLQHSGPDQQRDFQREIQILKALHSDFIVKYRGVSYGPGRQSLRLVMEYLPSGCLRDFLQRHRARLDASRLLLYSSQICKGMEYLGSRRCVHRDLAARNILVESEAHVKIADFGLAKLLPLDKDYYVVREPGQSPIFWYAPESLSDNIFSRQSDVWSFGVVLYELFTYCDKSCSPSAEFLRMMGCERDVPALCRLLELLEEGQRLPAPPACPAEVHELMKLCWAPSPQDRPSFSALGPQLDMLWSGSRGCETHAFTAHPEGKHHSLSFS

Consider `Cc1cc(CNc2[nH]nc(Nc3ccc(F)cc3)c2C(N)=O)cc(C)c1O` [Compound 42, 3-((4-fluorophenyl)amino)-5-((4-hydroxy-3,5-dimethylbenzyl)amino)-1H-pyrazole-4-carboxamide], for which, on JAK3, the Kd is above 1000 nM and the “RCK:JAK3 selectivity ratio” value is recorded as “B (B represents 10<Kd (JAK3): Kd (RCK)<100)”. In assay [1], the Kd is above 1000 nM. Also, on JAK2, the Kd was above 1000 nM and the “RCK:JAK2 selectivity ratio” value is “B (B represents 10<Kd(JAK2): Kd (RCK)<100)”.

Consider `Cc1cc(CNc2[nH]nc(Nc3cccc(C#N)c3)c2C(N)=O)cc(C)c1O` [Compound 43, 3-((3-cyanophenyl)amino)-5-((4-hydroxy-3,5-dimethylbenzyl)amino)-1H-pyrazole-4-carboxamide], for which, at JAK3, the Kd is above 1000 nM and the “RCK:JAK3 selectivity ratio” value is recorded as “C (C represents 1<Kd (JAK3): Kd (RCK)<10)”. Besides, in assay [1], the Kd was above 1000 nM. In addition, at JAK2, the Kd was above 1000 nM and the “RCK:JAK2 selectivity ratio” value is reported as “D (D represents Kd(JAK2): Kd (RCK)<1)”.

For the compound `Cc1cc(CNc2[nH]nc(Nc3ccc(N4CCN(c5ncccn5)CC4)cc3)c2C(N)=O)cc(C)c1O` [Compound 44, 5-((4-hydroxy-3,5-dimethylbenzyl)amino)-3-((4-(4-(pyrimidin-2-yl)piperazin-1-yl)phenyl)amino)-1H-pyrazole-4-carboxamide], the Kd on JAK3 was above 1000 nM; in assay [1], 100 to 1000 nM; on JAK2, above 1000 nM. For the same compound, the “RCK:JAK3 selectivity ratio” value at JAK3 is “B (B represents 10<Kd (JAK3): Kd (RCK)<100)”. At JAK2, the “RCK:JAK2 selectivity ratio” value is “B (B represents 10<Kd(JAK2): Kd (RCK)<100)”.

Regarding `Cc1cc(CNc2[nH]nc(Nc3ccc(CN4CCCCC4)cc3)c2C(N)=O)cc(C)c1O` [Compound 45, 5-((4-hydroxy-3,5-dimethylbenzyl)amino)-3-((4-(piperidin-1-ylmethyl)phenyl)amino)-1H-pyrazole-4-carboxamide], the figures for the Kd (at JAK3; in assay [1]; at JAK2) were 100 to 1000 nM, below 50 nM and 100 to 1000 nM, respectively. The “RCK:JAK3 selectivity ratio” value at JAK3 is given as “B (B represents 10<Kd (JAK3): Kd (RCK)<100)”. Moreover, the “RCK:JAK2 selectivity ratio” value on JAK2 is reported as “C (C represents 1<Kd (JAK2): Kd (RCK)<10)”.

Consider `Cc1cc(CNc2[nH]nc(Nc3ccc(N4CCSCC4)cc3)c2C(N)=O)cc(C)c1O` [Compound 46, 5-((4-hydroxy-3,5-dimethylbenzyl)amino)-3-((4-thiomorpholinophenyl)amino)-1H-pyrazole-4-carboxamide], for which, at JAK3, the Kd is above 1000 nM and the “RCK:JAK3 selectivity ratio” value is reported as “B (B represents 10<Kd (JAK3): Kd (RCK)<100)”. Further, the Kd in assay [1] was below 50 nM. Moreover, on JAK2, the Kd lay within 100 to 1000 nM and the “RCK:JAK2 selectivity ratio” value is listed as “B (B represents 10<Kd(JAK2): Kd (RCK)<100)”.

With `Cc1cc(CNc2[nH]nc(Nc3ccc(N)cc3)c2C(N)=O)cc(C)c1O` [Compound 47, 3-((4-aminophenyl)amino)-5-((4-hydroxy-3,5-dimethylbenzyl)amino)-1H-pyrazole-4-carboxamide], on JAK3, the Kd was above 1000 nM and the “RCK:JAK3 selectivity ratio” value is listed as “C (C represents 1<Kd (JAK3): Kd (RCK)<10)”. Besides, in assay [1], the Kd was above 1000 nM. Besides, at JAK2, the Kd was above 1000 nM and the “RCK:JAK2 selectivity ratio” value is recorded as “C (C represents 1<Kd (JAK2): Kd (RCK)<10)”.

For `Cc1cc(CNc2[nH]nc(Nc3ccc(S(N)(=O)=O)cc3)c2C(N)=O)cc(C)c1O` [Compound 48, 5-((4-hydroxy-3,5-dimethylbenzyl)amino)-3-((4-sulfamoylphenyl)amino)-1H-pyrazole-4-carboxamide], at JAK3, the Kd is above 1000 nM and the “RCK:JAK3 selectivity ratio” value is given as “B (B represents 10<Kd (JAK3): Kd (RCK)<100)”. For the same compound, the Kd in assay [1] lay within 100 to 1000 nM. For the same compound, at JAK2, the Kd was in the range of 100 to 1000 nM and the “RCK:JAK2 selectivity ratio” value was “C (C represents 1<Kd (JAK2): Kd (RCK)<10)”.

Consider `Cc1cc(CNc2[nH]nc(Nc3ccc(N4CCC(N5CCCC5)CC4)nc3)c2C(N)=O)cc(C)c1O` [Compound 49, 5-((4-hydroxy-3,5-dimethylbenzyl)amino)-3-((6-(4-(pyrrolidin-1-yl)piperidin-1-yl)pyridin-3-yl)amino)-1H-pyrazole-4-carboxamide], for which, at JAK3, the Kd is 100 to 1000 nM and the “RCK:JAK3 selectivity ratio” value is “A (A represents Kd (JAK3): Kd (RCK)>100)”. The Kd in assay [1] is below 50 nM. Further, on JAK2, the Kd was 100 to 1000 nM and the “RCK:JAK2 selectivity ratio” value is “A (A represents Kd (JAK2): Kd (RCK)>100)”.

Take `Cc1cc(CNc2[nH]nc(Nc3ccc(N(C)C)cc3)c2C(N)=O)cc(C)c1O` [Compound 50, 3-((4-(dimethylamino)phenyl)amino)-5-((4-hydroxy-3,5-dimethylbenzyl)amino)-1H-pyrazole-4-carboxamide]: the results for the Kd (on JAK3; in assay [1]; at JAK2) were above 1000 nM, 100 to 1000 nM and above 1000 nM, respectively. The “RCK:JAK3 selectivity ratio” value on JAK3 is on record as “C (C represents 1<Kd (JAK3): Kd (RCK)<10)”. Moreover, on JAK2, the “RCK:JAK2 selectivity ratio” value is recorded as “C (C represents 1<Kd (JAK2): Kd (RCK)<10)”.

Consider `Cc1cc(CNc2[nH]nc(Nc3ccc(CN4CCOCC4)cc3)c2C(N)=O)cc(C)c1O` [Compound 51, 5-((4-hydroxy-3,5-dimethylbenzyl)amino)-3-((4-(morpholinomethyl)phenyl)amino)-1H-pyrazole-4-carboxamide], for which, on JAK3, the Kd is above 1000 nM and the “RCK:JAK3 selectivity ratio” value was “B (B represents 10<Kd (JAK3): Kd (RCK)<100)”. Also, in assay [1], the Kd was below 50 nM. At JAK2, the Kd was 100 to 1000 nM and the “RCK:JAK2 selectivity ratio” value is listed as “B (B represents 10<Kd(JAK2): Kd (RCK)<100)”.

With `COc1cccc(Nc2n[nH]c(NCc3cc(C)c(O)c(C)c3)c2C(N)=O)c1` [Compound 52, 5-((4-hydroxy-3,5-dimethylbenzyl)amino)-3-((3-methoxyphenyl)amino)-1H-pyrazole-4-carboxamide], on JAK3, the Kd was above 1000 nM and the “RCK:JAK3 selectivity ratio” value is “C (C represents 1<Kd (JAK3): Kd (RCK)<10)”. Further, the Kd in assay [1] was above 1000 nM. Besides, at JAK2, the Kd is above 1000 nM and the “RCK:JAK2 selectivity ratio” value is reported as “C (C represents 1<Kd (JAK2): Kd (RCK)<10)”.

For `Cc1cc(CNc2[nH]nc(Nc3ccc(NC(=O)c4ccc(F)cc4)cc3)c2C(N)=O)cc(C)c1O` [Compound 53, 3-((4-(4-fluorobenzamido)phenyl)amino)-5-((4-hydroxy-3,5-dimethylbenzyl)amino)-1H-pyrazole-4-carboxamide], at JAK3, the Kd is above 1000 nM and the “RCK:JAK3 selectivity ratio” value is listed as “A (A represents Kd (JAK3): Kd (RCK)>100)”. Moreover, the Kd in assay [1] is 100 to 1000 nM. On JAK2, the Kd was above 1000 nM and the “RCK:JAK2 selectivity ratio” value was “A (A represents Kd (JAK2): Kd (RCK)>100)”.

For the compound `Cc1cc(CNc2[nH]nc(Nc3ccc(-c4cc[nH]n4)cc3)c2C(N)=O)cc(C)c1O` [Compound 54, 3-((4-(1H-pyrazol-3-yl)phenyl)amino)-5-((4-hydroxy-3,5-dimethylbenzyl)amino)-1H-pyrazole-4-carboxamide], on JAK3, the Kd is above 1000 nM and the “RCK:JAK3 selectivity ratio” value is “B (B represents 10<Kd (JAK3): Kd (RCK)<100)”. Moreover, the Kd in assay [1] lay in the range of 100 to 1000 nM. Also, on JAK2, the Kd is above 1000 nM and the “RCK:JAK2 selectivity ratio” value is listed as “B (B represents 10<Kd(JAK2): Kd (RCK)<100)”.

Take `COc1ccccc1C(=O)Nc1ccc(Nc2n[nH]c(NCc3cc(C)c(O)c(C)c3)c2C(N)=O)cc1` [Compound 55, 5-((4-hydroxy-3,5-dimethylbenzyl)amino)-3-((4-(2-methoxybenzamido)phenyl)amino)-1H-pyrazole-4-carboxamide]: on JAK3, the Kd was above 1000 nM and the “RCK:JAK3 selectivity ratio” value is on record as “B (B represents 10<Kd (JAK3): Kd (RCK)<100)”. Moreover, the Kd in assay [1] lay within 100 to 1000 nM. Further, at JAK2, the Kd was above 1000 nM and the “RCK:JAK2 selectivity ratio” value was “B (B represents 10<Kd(JAK2): Kd (RCK)<100)”.

As for `COc1cccc(C(=O)Nc2ccc(Nc3n[nH]c(NCc4cc(C)c(O)c(C)c4)c3C(N)=O)cc2)c1` [Compound 56, 5-((4-hydroxy-3,5-dimethylbenzyl)amino)-3-((4-(3-methoxybenzamido)phenyl)amino)-1H-pyrazole-4-carboxamide], at JAK3, the Kd is above 1000 nM and the “RCK:JAK3 selectivity ratio” value is “A (A represents Kd (JAK3): Kd (RCK)>100)”. In assay [1], the Kd fell in the range of 100 to 1000 nM. For the same compound, at JAK2, the Kd was above 1000 nM and the “RCK:JAK2 selectivity ratio” value is given as “B (B represents 10<Kd(JAK2): Kd (RCK)<100)”.

In the case of `COc1ccc(C(=O)Nc2ccc(Nc3n[nH]c(NCc4cc(C)c(O)c(C)c4)c3C(N)=O)cc2)cc1` [Compound 57, 5-((4-hydroxy-3,5-dimethylbenzyl)amino)-3-((4-(4-methoxybenzamido)phenyl)amino)-1H-pyrazole-4-carboxamide], on JAK3, the Kd was above 1000 nM and the “RCK:JAK3 selectivity ratio” value is recorded as “A (A represents Kd (JAK3): Kd (RCK)>100)”. Further, the Kd in assay [1] fell in the range of 50 to 100 nM. On JAK2, the Kd is above 1000 nM and the “RCK:JAK2 selectivity ratio” value is recorded as “A (A represents Kd (JAK2): Kd (RCK)>100)”.
